Source: PubChem BioAssay AID248 (DTP/NCI, 2004)
“And” between values parts separate entries of the source, which are not always exact repeats. Equal entries are not always repeated. Inconclusive results and toxic doses are left out.

System: L1210 leukemia ip in BDF1 mice, survival T/C
Test: NCI In Vivo Anticancer Drug Screen. Data for tumor model L1210 Leukemia (intraperitoneal) in B6D2F1 (BDF1) mice
Conditions: endpoint: mean survival time, higher = longer survival
In short: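 Antitumor effect is assessed in tumor-bearing animals. Survival in the compound arm is compared with a vehicle-dosed control arm and expressed as their quotient.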

[1] = dose: 100.0 mg/kg/injection, schedule: Q04DX003 (ip), vehicle: saline
[2] = dose: 100.0 mg/kg/injection, schedule: Q04DX003 (ip), vehicle: saline with Tween-80
[3] = dose: 200.0 mg/kg/injection, schedule: Q04DX003 (ip), vehicle: saline with Tween-80
[4] = dose: 400.0 mg/kg/injection, schedule: Q04DX003 (ip), vehicle: saline with Tween-80
[5] = dose: 100.0 mg/kg/injection, schedule: Q04DX003 (ip), vehicle: Klucel (hydroxypropylcellulose) (HPC)
[6] = dose: 200.0 mg/kg/injection, schedule: Q04DX003 (ip), vehicle: Klucel (hydroxypropylcellulose) (HPC)

O=[N+]([O-])c1ccccc1C(=Nc1ccccc1)c1c(O)cc(O)cc1O
T/C (dose: 100.0 mg/kg/injection, schedule: Q01DX009 (ip), vehicle: acetone): 94 % of control
T/C [1]: 96 % of control
T/C (dose: 200.0 mg/kg/injection, schedule: Q01DX009 (ip), vehicle: acetone): 100 % of control
T/C (dose: 200.0 mg/kg/injection, schedule: Q04DX003 (ip), vehicle: saline): 101 % of control
T/C (dose: 400.0 mg/kg/injection, schedule: Q04DX003 (ip), vehicle: saline): 98 % of control

COc1ccccc1/C=N\NC(=S)Nc1ccc(F)cc1
T/C (dose: 60.0 mg/kg/injection, schedule: Q01DX Z (oral), vehicle: methylcellulose (MC)): 106 % of control
T/C (dose: 120.0 mg/kg/injection, schedule: Q01DX Z (oral), vehicle: methylcellulose (MC)): 90 % of control
T/C (dose: 240.0 mg/kg/injection, schedule: Q01DX Z (ip), vehicle: methylcellulose (MC)): 92 % of control
T/C (dose: 240.0 mg/kg/injection, schedule: Q01DX Z (oral), vehicle: methylcellulose (MC)): 96 % of control
T/C (dose: 480.0 mg/kg/injection, schedule: Q01DX Z (ip), vehicle: methylcellulose (MC)): 91 % of control
T/C (dose: 480.0 mg/kg/injection, schedule: Q01DX Z (oral), vehicle: methylcellulose (MC)): 93 % of control

O=C(CCc1ccc(O)cc1)N/N=C/c1cc(Br)ccc1O
T/C (dose: 100.0 mg/kg/injection, schedule: Q01DX009 (ip), vehicle: saline with Tween-80): 97 % of control
T/C [2]: 95 % of control
T/C (dose: 200.0 mg/kg/injection, schedule: Q01DX009 (ip), vehicle: saline with Tween-80): 92 % of control
T/C [3]: 96 % of control
T/C (dose: 400.0 mg/kg/injection, schedule: Q01DX009 (ip), vehicle: saline with Tween-80): 92 % of control
T/C [4]: 90 % of control

C=CC1CC=CCC1 (centres undefined) (tested in a mixture with another compound)
T/C (dose: 50.0 mg/kg/injection, schedule: Q01DX001 (ip), vehicle: carboxymethylcellulose (CMC)): 98 % of control
T/C (dose: 100.0 mg/kg/injection, schedule: Q01DX001 (ip), vehicle: carboxymethylcellulose (CMC)): 98 % of control
T/C (dose: 200.0 mg/kg/injection, schedule: Q01DX001 (ip), vehicle: carboxymethylcellulose (CMC)): 98 % of control
T/C (dose: 400.0 mg/kg/injection, schedule: Q01DX001 (ip), vehicle: carboxymethylcellulose (CMC)): 108 % of control

CC(=O)O[C@@H]1C[C@@]2(C)[C@@H]3CC=C4[C@@H](C[C@H](O)C(=O)C4(C)C)[C@]3(C)C(=O)C[C@]2(C)[C@H]1[C@@](C)(O)C(=O)/C=C/C(C)(C)OC(C)=O
T/C (dose: 50.0 mg/kg/injection, schedule: Q01DX001 (ip), vehicle: saline): 102 % of control
T/C (dose: 100.0 mg/kg/injection, schedule: Q01DX001 (ip), vehicle: saline): 107 % of control

Cc1c2ccncc2c(C)c2c1sc1ccccc12
T/C (dose: 5.0 mg/kg/injection, schedule: Q01DX009 (ip), vehicle: Klucel (hydroxypropylcellulose) (HPC)): 106 % of control
T/C (dose: 10.0 mg/kg/injection, schedule: Q01DX009 (ip), vehicle: Klucel (hydroxypropylcellulose) (HPC)): 117 % of control
T/C (dose: 20.0 mg/kg/injection, schedule: Q01DX009 (ip), vehicle: Klucel (hydroxypropylcellulose) (HPC)): 124 % of control
T/C (dose: 20.0 mg/kg/injection, schedule: Q01DX009 (ip), vehicle: other): 113 % of control
T/C (dose: 31.0 mg/kg/injection, schedule: Q01DX001 (ip), vehicle: other): 105 % of control
T/C (dose: 62.0 mg/kg/injection, schedule: Q01DX001 (ip), vehicle: other): 111 % of control
T/C (dose: 80.0 mg/kg/injection, schedule: Q01DX009 (ip), vehicle: other): 121 % of control
T/C (dose: 125.0 mg/kg/injection, schedule: Q01DX001 (ip), vehicle: other): 121 % of control
T/C (dose: 250.0 mg/kg/injection, schedule: Q01DX001 (oral), vehicle: other): 112 % of control
T/C (dose: 500.0 mg/kg/injection, schedule: Q01DX001 (ip), vehicle: other): 187 % of control
T/C (dose: 500.0 mg/kg/injection, schedule: Q01DX001 (oral), vehicle: other): 112 % of control

CC(=O)OCC(C)(C)c1ccccc1
T/C (dose: 100.0 mg/kg/injection, schedule: Q04DX002 (ip), vehicle: saline): 105 % of control
T/C (dose: 200.0 mg/kg/injection, schedule: Q04DX002 (ip), vehicle: saline): 97 % of control
T/C (dose: 400.0 mg/kg/injection, schedule: Q04DX002 (ip), vehicle: saline): 105 % of control

NC(N)=NC1CCCC1
T/C [1]: 104 % of control

CCCCC(NC(C)=O)C(=O)O (centres undefined)
T/C (dose: 100.0 mg/kg/injection, schedule: Q01DX009 (ip), vehicle: Klucel (hydroxypropylcellulose) (HPC)): 96 % of control and 100 % of control
T/C [5]: 90 % of control
T/C (dose: 200.0 mg/kg/injection, schedule: Q01DX009 (ip), vehicle: Klucel (hydroxypropylcellulose) (HPC)): 86 % of control and 97 % of control
T/C [6]: 97 % of control
T/C (dose: 400.0 mg/kg/injection, schedule: Q01DX009 (ip), vehicle: Klucel (hydroxypropylcellulose) (HPC)): 88 % of control
T/C (dose: 400.0 mg/kg/injection, schedule: Q04DX003 (ip), vehicle: Klucel (hydroxypropylcellulose) (HPC)): 90 % of control

O=P(O)(O)Cc1cccc2ccccc12
T/C [5]: 92 % of control
T/C [2]: 96 % of control
T/C [6]: 89 % of control
T/C [3]: 96 % of control
T/C [4]: 96 % of control
